Values after ≈ are worked out from the molar mass of the structure shown.
Assays:
[1] = tested on: A. flavus; experiment: Antimicrobial screening, hole-plate and filter disc; type: cell-based, Aspergillus flavus; set-up: key to A (activity): (-) no activity; (+) mild activity with diameter zone of (0.5–0.7 cm); (++) moderate activity with diameter zone of (1.1–1.2 cm); (+++) marked with diameter zone of (1.6–1.8 cm); conditions: for A (activity): zone width of inhibition, compounds dissolved in 10% acetone
Procedure: (§1) All investigations were executed at the Biology department, Faculty of Science, Benha University, Egypt. The antimicrobial activities of all the synthesized molecules were determined in vitro, using the hole-plate and filter disc methodologies. The investigated compounds were dissolved in 10% acetone (v/v). The width of the inhibition zone indicated the potency of the antimicrobial activity: (-) no antimicrobial activity, (+) mild activity with the diameter of the zones equal to (0.5–0.7 cm), (++) moderate activity with the diameter of the zones equal to (1.1–1.2 cm), and (+++) marked activity with the diameter of the zones equal to (1.6–1.8 cm).

[2] = tested on: E. coli; experiment: as above; type: cell-based, Escherichia coli; set-up: key to A (activity): (-) no activity; (+) mild activity with diameter zone of (0.5–0.7 cm); (++) moderate activity with diameter zone of (1.1–1.2 cm); (+++) marked with diameter zone of (1.6–1.8 cm); conditions: for A (activity): zone width of inhibition, compounds dissolved in 10% acetone
Procedure: as §1

[3] = tested on: S. aureus; experiment: as above; type: cell-based, Staphylococcus aureus; set-up: key to A (activity): (-) no activity; (+) mild activity with diameter zone of (0.5–0.7 cm); (++) moderate activity with diameter zone of (1.1–1.2 cm); (+++) marked with diameter zone of (1.6–1.8 cm); conditions: for A (activity): zone width of inhibition, compounds dissolved in 10% acetone
Procedure: as §1

[4] = tested on: F. moniliform; experiment: as above; type: cell-based, Fusarium moniliform; conditions: for A (activity): zone width of inhibition, compounds dissolved in 10% acetone
Procedure: as §1

[5] = tested on: Hela for cervical cancer; experiment: SRB cytotoxicity assay; type: cell-based; conditions: Homo sapiens, 72 h, 3 days
Procedure: (§2) The cells were supplied by the Egyptian Holding Company for Biological Products and Vaccines (VACSERA) and then kept in the tissue culture unit. The growth of the cells was affected in RPMI-1640 medium, supplemented with 10% heat-inactivated FBS, 50 units/mL of penicillin, and […] of streptomycin, and maintained in a humidified atmosphere with 5% carbon dioxide. The cells were maintained as monolayer cultures by serial sub-culturing, with cell culture reagents obtained from Lonza (Basel, Switzerland). The antitumor activities of the complexes were assessed against three cell lines MCF-7 for breast cancer, Ovcar-3 for ovarian cancer, and Hela for cervical cancer. In addition, all the results obtained were compared and validated to the LCC-MK2 normal cell line. In the literature, the sulforhodamine B (SRB) assay method was applied to determine the cytotoxicity, as described in [39]. Exponentially growing cells were collected using 0.25% Trypsin-EDTA and seeded in 96-well plates at 1000–2000 cells/well in RBMI-1640-supplemented medium. The cells were kept in the medium for 24 h and then incubated for 3 days with various concentrations of the copper complexes. Following 3 days of treatment, the cells were fixed with 10% trichloroethanoic acid for 1 h at 4 °C. Wells were stained for 10 min at room temperature with 0.4% SRBC dissolved in 1% acetic acid. The plates were air-dried for 24 h, and the dye was dissolved in Tris-HCl for 5 min with shaking at 1600 rpm. An ELISA microplate reader (ChroMate-4300, FL, USA) was used to assess each well’s optical density (O.D.) at 564 nm. The IC50 values were calculated from a Boltzmann sigmoidal concentration-response curve using the nonlinear regression fitting models (Graph Pad, Prism Version 9).

[6] = tested on: LCC-MK2 normal cell line; experiment: SRB cytotoxicity assay; type: cell-based; conditions: 72 h, 3 days
Procedure: as §2

[7] = tested on: MCF-7 for breast cancer; experiment: SRB cytotoxicity assay; type: cell-based; conditions: Homo sapiens, MCF7, 72 h, 3 days
Procedure: as §2

[8] = tested on: Ovcar-3 for ovarian cancer; experiment: SRB cytotoxicity assay; type: cell-based; conditions: Homo sapiens, 72 h, 3 days
Procedure: as §2

Row | melting point [°C] | SMILES | A (activity) [1] | A (activity) [2] | Mic (minimum inhibitory concentration) [3] | A (activity) [3] | Mic (minimum inhibitory concentration) [4] | A (activity) [4] | Mic (minimum inhibitory concentration) [2] | IC50 [5] [µg/mL] | IC50 [6] [µg/mL] | IC50 [7] [µg/mL] | IC50 [8] [µg/mL] | Mic (minimum inhibitory concentration) [1]
1 | 98 to 100 | N#CC12C(=O)NC(=O)N=C1N=C(CN1C(=O)c3c(Br)c(Br)c(Br)c(Br)c3C1=O)OC2c1ccccc1 (stereo not shown) [Compound 2a] | - | - | 125 | + ((+) mild activity with diameter zone of (0.5–0.7 cm)) | 125 | + ((+) mild activity with diameter zone of (0.5–0.7 cm)) |  |  |  |  |  | 
2 |  | N#CC12C(=O)NC(=S)N=C1N=C(CN1C(=O)c3c(Br)c(Br)c(Br)c(Br)c3C1=O)OC2c1ccccc1 (stereo not shown) [Compound 2b] | - | + ((+) mild activity with diameter zone of (0.5–0.7 cm)) | 250 | ++ ((++) moderate activity with diameter zone of (1.1–1.2 cm)) | 125 | + ((+) mild activity with diameter zone of (0.5–0.7 cm)) | 250 | 22.8 (≈ 30.1 µM) | 89.3 (≈ 118 µM) | 13.8 (≈ 18.2 µM) | 15.2 (≈ 20.1 µM) | 
3 |  | N#CC12C(=N)NN=C1N=C(CN1C(=O)c3c(Br)c(Br)c(Br)c(Br)c3C1=O)OC2c1ccccc1 (stereo not shown) [Compound 3, 2-(tetrabromophalimidmethyl)-6-phenyl-5-yano-1,3-oxazino[4,5-d]-1,2-pyrazole2[H]-3-one] | + ((+) mild activity with diameter zone of (0.5–0.7 cm)) | + ((+) mild activity with diameter zone of (0.5–0.7 cm)) | 125 | + ((+) mild activity with diameter zone of (0.5–0.7 cm)) | 125 | + ((+) mild activity with diameter zone of (0.5–0.7 cm)) | 125 | 9.14 (≈ 12.8 µM) | 206 (≈ 289 µM) | 15.5 (≈ 21.7 µM) | 14.6 (≈ 20.4 µM) | 125
4 |  | N#CC12C(=N)NC(=O)N=C1N=C(CN1C(=O)c3c(Br)c(Br)c(Br)c(Br)c3C1=O)OC2c1ccccc1 (stereo not shown) [Compound 4a] | +++ ((+++) marked with diameter zone of (1.6–1.8 cm)) | + ((+) mild activity with diameter zone of (0.5–0.7 cm)) |  | - | 250 | + ((+) mild activity with diameter zone of (0.5–0.7 cm)) | 250 | 12.9 (≈ 17.4 µM) | 68.9 (≈ 92.9 µM) | 21.7 (≈ 29.2 µM) | 15.9 (≈ 21.4 µM) | 250
5 |  | N#CC12C(=N)NC(=S)N=C1N=C(CN1C(=O)c3c(Br)c(Br)c(Br)c(Br)c3C1=O)OC2c1ccccc1 (stereo not shown) [Compound 4b] | - | + ((+) mild activity with diameter zone of (0.5–0.7 cm)) | 250 | ++ ((++) moderate activity with diameter zone of (1.1–1.2 cm)) | 125 | + ((+) mild activity with diameter zone of (0.5–0.7 cm)) | 250 | 14.8 (≈ 19.5 µM) | 170 (≈ 225 µM) | 16.6 (≈ 21.8 µM) | 11.2 (≈ 14.8 µM) | 
6 |  | N#CC12C(=O)NN=C1N=C(CN1C(=O)c3c(Br)c(Br)c(Br)c(Br)c3C1=O)OC2c1ccccc1 (stereo not shown) [Compound 5, 2-(tetrabromophalimidmethyl)-6-phenyl-5-yano-1,3-oxazino[4,5-d]-1,2-pyrazole2[H]-3-imide] | +++ ((+++) marked with diameter zone of (1.6–1.8 cm)) | ++ ((++) moderate activity with diameter zone of (1.1–1.2 cm)) | 250 | ++ ((++) moderate activity with diameter zone of (1.1–1.2 cm)) | 250 | + ((+) mild activity with diameter zone of (0.5–0.7 cm)) | 250 | 5.69 (≈ 7.96 µM) | 191 (≈ 267 µM) | 12.3 (≈ 17.2 µM) | 10.1 (≈ 14.1 µM) | 250

Source: paper PMC8468439, “Oxazinethione Derivatives as a Precursor to Pyrazolone and Pyrimidine Derivatives: Synthesis, Biological Activities, Molecular Modeling, ADME, and Molecular Dynamics Studies” (Molecules, 2021)
